Data from PMC12270663, “Cagrilintide lowers bodyweight through brain amylin receptors 1 and 3” (eBioMedicine, 2025).

What was measured:
[1] = test system: area postrema (AP) neurons of WT and RAMP1/3 KO mice; experiment: Study 4 cohort 1: cFos positive neurons, AP; assay type: in vivo, mouse; conditions: second statistical test, Figure 4b
Procedure: Mice were group housed in a controlled environment maintained at 21 ± 2 °C, under a 12/12 h light–dark cycle (lights off at 11.00 h). In the first cohort, 25 male WT and 25 male RAMP1/3 KO mice aged between 12 and 20 week-old were fed chow diet and maintained under group housing condition. In the second cohort, 18 male WT, 18 male RAMP1 KO, 18 male RAMP3 KO and 18 male RAMP1/3 KO mice aged between 10 and 15 week-old were fed chow diet and maintained under group housing condition.
For both cohorts, animals were deeply anesthetised 90 min later (pentobarbital 100 mg/kg, i.p) and transcardially perfused with cold 0.1 M of phosphate buffer (PB) for 1.5 min followed by 4% of paraformaldehyde (PFA) in PB for 2.5 min. Brains were removed and postfixed overnight in 4% of PFA and cryoprotected in 20% of sucrose-PB for 24 h. Brains were frozen in hexane on dry ice and stored at −80 °C until sectioning. Stereological brain sampling of the areas of interest was performed and brain were serially cut on a cryostat (Leica Biosystems, Germany, cat# CM3050S), mounted on Superfrost Plus slides (Thermo Fisher Scientific, Reinach, Switzerland), and cryoprotected in 50% of PB, 30% of ethylene glycol, 20% of glycerol, and subsequently stored at −20 °C.
Blocking of the mouse brain sections was performed with 0.4% Triton–4% normal goat serum in PBS for 2 h at room temperature. AP/NTS and LPBN sections were incubated at 4 °C for 48 h with rabbit anti-Fos antibody (1:500, Cell signalling technology, Switzerland, Cat# 2250, RRID: AB_2247211), and then after PBS washes, incubated with goat anti-rabbit Alexa Fluor CY3 (1:200, LuBio Science GmbH, Switzerland for Jackson Immunoresearch, Cat# 111-165-144) or alexa fluor 488 for 2 h at room temperature. After thorough washing in PBS, the sections were counterstained with DAPI, mounted immediately and coverslipped with Vectashield antifade Mounting Medium (Vectorlabs, Burlingame, USA, cat# H-1400).[40]
Photomicrographs of all sections containing AP, NTS and LPBN were taken at 20× magnification using Zeiss Axio Scan.Z1 slidescanner (Center for Microscopy and Image Analysis UZH, Zeiss, Germany). All images for each study were acquired using the same exposure time. Scanned images were imported into QuPath (QuPath 0.5.0) for quantification. Three to four sections were counted and averaged per area of interest. A polygon tool was used manually to determine the boundary of the region of interest of the brain section. A cell detection tool was used to detect every cell in the section by using a built-in cell segmentation algorithm. The cell detection tool was used on the DAPI channel to make sure that only a cell was recognised and not the background or artefact by system. A detection classifier was created by using the create detection classifier function. The numbers of positive counted DAPI cells containing a cFos signal were automatically counted within the region. The experimental group was blinded to the experimenter during the analysis.

[2] = test system: WT and RAMP1/3 KO high fat diet fed mice; experiment: Study 3: body composition by EchoMRI; assay type: in vivo, mouse; conditions: 150 nmol/kg/d s.c., 3 weeks
Procedure: (§1) Mice were s.c. injected once a day for 3 weeks 1 h before dark onset between 9.00 and 10.00 h. Prior to injection, daily body weight and food intake were measured manually. On the day of sacrifice, mice were anesthetised with pentobarbital (100 mg/kg, i.p., Cantonal Pharmacy of Zurich, Switzerland) 24 h after receiving the last dose of peptide.
Brains were harvested, snap frozen on dry ice and kept at −80 °C until mRNA extraction for next-generation sequencing (NGS) analysis. Blood samples were collected from the right ventricle of the heart during the sacrifice in 1 mL EDTA-coated tubes containing dipeptidyl peptidase-4 inhibitor (10 μL/mL blood; Sigma Aldrich, Switzerland, cat# DPP4-010) and protease inhibitor (30 μL/mL blood; Sigma Aldrich, Switzerland, cat# P2714). After centrifugation, plasma was kept at −80 °C. The mice were stored at −20 °C until body composition analysis was performed.
Lean and fat mass were measured post-mortem using EchoMRI (EchoMRI LLC, USA) at the Zurich Integrative Rodent Physiology (University of Zurich). Calibrations and measurements were performed according to manufacturer's instructions. Two measurements were performed and averaged per mouse. Fat mass and lean mass values are expressed as percent of body weight.

[3] = test system: WT and RAMP1/3 KO high fat diet fed mice; experiment: Study 3: 3-week treatment, food intake and body weight; assay type: in vivo, mouse
Procedure: Male mice were housed in a controlled environment maintained at 21 ± 2 °C, under a 12/12 h light–dark cycle (lights off at 11.00 h). Mice had ad libitum access to standard chow (3.14 kcal/g of food; Kliba, Switzerland, cat# 3436) and water, until 3–4 weeks old. Twenty-four WT and twenty-four RAMP 1/3 KO male mice were fed a 60% fat HFD (5.24 kcal/g of food; SSNIFF Spezialdiäten GmbH, Germany, cat# EF D12452) provided ad libitum for 18 weeks. Then mice were fed to a 45% fat HFD (4.73 kcal/g of food; SSNIFF Spezialdiäten GmbH, Germany, cat# EF D12451) provided ad libitum for 6 weeks until the end of the study. The mice were group housed (3–4 mice per cage) until 1 week before the 21-day treatment period. Each cage was equipped with a red plastic house, tissue paper, nest-building material and wood shavings. Prior to the 21-day treatment, mice were injected with vehicle for three days to acclimate to the daily subcutaneous injections and reduce stress associated with the injections.
as §1

[4] = test system: AMYRs and CTR; conditions: cited from earlier work
Description: In a cellular assay, cagrilintide was confirmed to be a non-selective agonist of the CTR and AMYRs across multiple assays of proximal ...

Row | Molecule | Predicted (LS) mean diff., AP cFos after square root transformation ([1]; RAMP 1/3 KO, Vehicle vs. sCT (3 nmol/kg), Tukey) | Predicted (LS) mean diff., AP cFos after square root transformation ([1]; RAMP 1/3 KO, Vehicle vs. sCT (150 nmol/kg), Tukey) | Predicted (LS) mean diff., AP cFos after square root transformation ([1]; RAMP 1/3 KO, sCT (3 nmol/kg) vs. Cagrilintide (3 nmol/kg), Tukey) | Predicted (LS) mean diff., AP cFos after square root transformation ([1]; RAMP 1/3 KO, sCT (3 nmol/kg) vs. sCT (150 nmol/kg), Tukey) | Predicted (LS) mean diff., AP cFos after square root transformation ([1]; RAMP 1/3 KO, sCT (150 nmol/kg) vs. Cagrilintide (3 nmol/kg), Tukey) | Predicted (LS) mean diff., AP cFos after square root transformation ([1]; WT, Vehicle vs. sCT (3 nmol/kg), Tukey) | Predicted (LS) mean diff., AP cFos after square root transformation ([1]; WT, Vehicle vs. sCT (150 nmol/kg), Tukey) | Predicted (LS) mean diff., AP cFos after square root transformation ([1]; WT, sCT (3 nmol/kg) vs. Cagrilintide (3 nmol/kg), Tukey) | Predicted (LS) mean diff., AP cFos after square root transformation ([1]; WT, sCT (3 nmol/kg) vs. sCT (150 nmol/kg), Tukey) | Predicted (LS) mean diff., AP cFos after square root transformation ([1]; WT, sCT (150 nmol/kg) vs. Cagrilintide (3 nmol/kg), Tukey) | Predicted (LS) mean diff., AP cFos after square root transformation ([1]; sCT (3 nmol/kg), WT vs. RAMP 1/3 KO) | Predicted (LS) mean diff., AP cFos after square root transformation ([1]; sCT (150 nmol/kg), WT vs. RAMP 1/3 KO) | reduction of relative lean mass in KO mice compared to WT [2] | effect on body composition ([2]; WT mice) | acute anorectic effect on day 1 ([3]; RAMP1/3 KO mice, cagrilintide 3, sCT 150 nmol/kg s.c.) | weight gain on subchronic treatment ([3]; WT mice, 150 nmol/kg/d s.c.) | Food intake on Day 1 ([3]; WT mice, cagrilintide 3, sCT 150 nmol/kg s.c., mean ± SEM, n = 7–8/group) | residence time (dissociation) ([4]; comparable for all AMYRs / all receptors) | binding to AMYRs [4]
1 | CC(C)C[C@H](NC(=O)[C@H](CCCCN)NC(=O)CNC(=O)[C@H](CC(C)C)NC(=O)[C@@H](NC(=O)[C@@H]1CSSC[C@H](N)C(=O)N[C@@H](CO)C(=O)N[C@@H](CC(N)=O)C(=O)N[C@@H](CC(C)C)C(=O)N[C@@H](CO)C(=O)N[C@@H]([C@@H](C)O)C(=O)N1)C(C)C)C(=O)N[C@@H](CO)C(=O)N[C@@H](CCC(N)=O)C(=O)N[C@@H](CCC(=O)O)C(=O)N[C@@H](CC(C)C)C(=O)N[C@@H](Cc1c[nH]cn1)C(=O)N[C@@H](CCCCN)C(=O)N[C@@H](CC(C)C)C(=O)N[C@@H](CCC(N)=O)C(=O)N[C@H](C(=O)N[C@@H](Cc1ccc(O)cc1)C(=O)N1CCC[C@H]1C(=O)N[C@@H](CCCNC(=N)N)C(=O)N[C@H](C(=O)N[C@@H](CC(N)=O)C(=O)N[C@H](C(=O)NCC(=O)N[C@@H](CO)C(=O)NCC(=O)N[C@H](C(=O)N1CCC[C@H]1C(N)=O)[C@@H](C)O)[C@@H](C)O)[C@@H](C)O)[C@@H](C)O [sCT, salmon calcitonin] | -8.457 | -9.262 | 4.579 | -0.8046 | 5.384 | -8.131 | -7.632 | 1.906 | 0.4986 | 1.408 | -0.1355 | -1.439 | 15% | no effect | no effect | approx. 2 g | 1.5 ± 0.2 g | 45 to 60 min | 
2 | Davalintide |  |  |  |  |  |  |  |  |  |  |  |  |  |  |  |  |  |  | binds irreversibly
